This note sets out measurements from patent publication US7629348B2, “Heterocyclic amide and imine derivatives, processes for their preparation, compositions comprising them and their use as pesticides” (Merial Limited, priority 2001, dated 2009).

The structures appear in SMILES notation.

Experiment [1] concerns black bean aphids (Aphis fabae). Nature of the experiment: Root-systemic test: solution pipetted into bottle with field bean (Vicia faba), aphid mortality. The following applies: 4 ml aqueous solution pipetted into bottle; after 3 and 6 days of storage; concentration 500 ppm or less.
Procedure: Germinated field bean seeds (Vicia faba) with seed roots were transferred into brown glass bottles filled with tap water. Four milliliters of an aqueous solution of the formulated preparation to be examined were pipetted into the brown glass bottle. The field bean was then heavily populated with about 100 black bean aphids (Aphis fabae). Plants and aphids were then stored in a climatized chamber (16 hours of light/day, 25° C., 40-60% relative atmospheric humidity). After 3 and 6 days of storage, the root-systemic effect of the preparation as aphid mortality was determined.
Experiment [2] shares this test system. As to the kind of experiment: Dip test: field bean plants (Vicia faba) and aphids dipped into solution of preparation, aphid mortality. The following applies: plants and aphids dipped 5 seconds; after 3 and 6 days of storage; concentration 500 ppm or less.
Procedure: Germinated field bean seeds (Vicia faba) with seed roots were transferred into brown glass bottles filled with tap water and then populated with about 100 black bean aphids (Aphis fabae). Plants and aphids were then dipped into an aqueous solution of the formulated preparation to be examined for 5 seconds. After they had drained, plants and animals were stored in a climatized chamber (16 hours of light/day, 25° C., 40-60% relative atmospheric humidity). After 3 and 6 days of storage, the mortality of the preparation on the aphids was determined.

Regarding `O=C(NSC1CCCC1)c1cnccc1C(F)(F)F` [Example 1], the “root-systemic effect of the preparation as aphid mortality” value (“root-systemic effect of the preparation” below) in experiment [1] is recorded as “active”. In addition, the “mortality of the preparation on the aphids” value (“mortality of the preparation” for short) in experiment [2] is on record as “active”.

`O=C(NSc1ccccc1)c1cnccc1C(F)(F)F` [Example 2]: the “root-systemic effect of the preparation” value in experiment [1] is recorded as “active”. The “mortality of the preparation” value in experiment [2] is “active”.

Regarding `CCN(Sc1ccccc1)C(=O)c1cnccc1C(F)(F)F` [Example 3], in experiment [1], the “root-systemic effect of the preparation” value was “active”. Further, the “mortality of the preparation” value in experiment [2] is “active”.

On to `CC(C)N(Sc1ccccc1)C(=O)c1cnccc1C(F)(F)F` [Example 4], for which, in experiment [1], the “root-systemic effect of the preparation” value was “active”. Moreover, in experiment [2], the “mortality of the preparation” value was “active”.

As for `Cc1ccc(SN(C(=O)c2cnccc2C(F)(F)F)C(C)C)cc1` [Example 6], the “root-systemic effect of the preparation” value in experiment [1] was “active”. Further, the “mortality of the preparation” value in experiment [2] is recorded as “active”.

For `O=C(NSc1ccc(Cl)cc1)c1cnccc1C(F)(F)F` [Example 18], the “root-systemic effect of the preparation” value in experiment [1] was “active”. The “mortality of the preparation” value in experiment [2] is listed as “active”.

As for `O=C(NSc1ccc(F)cc1)c1cnccc1C(F)(F)F` [Example 23], the “root-systemic effect of the preparation” value in experiment [1] is given as “active”. Moreover, in experiment [2], the “mortality of the preparation” value is “active”.

Take `CC(C)SNC(=O)c1cnccc1C(F)(F)F` [Example 29]: in experiment [1], the “root-systemic effect of the preparation” value is recorded as “active”. The “mortality of the preparation” value in experiment [2] was “active”.

Regarding `CCC(C)CSNC(=O)c1cnccc1C(F)(F)F` (stereo not shown) [Example 38], in experiment [1], the “root-systemic effect of the preparation” value is recorded as “active”. Moreover, in experiment [2], the “mortality of the preparation” value is listed as “active”.

Regarding `C=CCSNC(=O)c1cnccc1C(F)(F)F` [Example 44], the “root-systemic effect of the preparation” value in experiment [1] is given as “active”. In addition, in experiment [2], the “mortality of the preparation” value is on record as “active”.

Regarding `CC(C)CCSNC(=O)c1cnccc1C(F)(F)F` [Example 45], the “root-systemic effect of the preparation” value in experiment [1] is on record as “active”. Further, the “mortality of the preparation” value in experiment [2] was “active”.

As for `CCCCCSNC(=O)c1cnccc1C(F)(F)F` [Example 48], the “root-systemic effect of the preparation” value in experiment [1] is “active”. Also, the “mortality of the preparation” value in experiment [2] is reported as “active”.

Take `CCCCCCSNC(=O)c1cnccc1C(F)(F)F` [Example 49]: in experiment [1], the “root-systemic effect of the preparation” value was “active”. The “mortality of the preparation” value in experiment [2] is listed as “active”.

As for `CCCCCCCSNC(=O)c1cnccc1C(F)(F)F` [Example 50], the “root-systemic effect of the preparation” value in experiment [1] is given as “active”. Also, the “mortality of the preparation” value in experiment [2] is recorded as “active”.

For `O=C(NSCc1ccc(C(F)(F)F)cc1)c1cnccc1C(F)(F)F` [Example 84], the “root-systemic effect of the preparation” value in experiment [1] is on record as “active”. The “mortality of the preparation” value in experiment [2] was “active”.

As for `O=C(NSCc1cccc(C(F)(F)F)c1)c1cnccc1C(F)(F)F` [Example 85], the “root-systemic effect of the preparation” value in experiment [1] is listed as “active”. Further, the “mortality of the preparation” value in experiment [2] is “active”.

As to `O=C(NSC1CC1)c1cnccc1C(F)(F)F` [Example 98], the “root-systemic effect of the preparation” value in experiment [1] is recorded as “active”. Further, the “mortality of the preparation” value in experiment [2] was “active”.

As to `CC(C)SN=C(OCCC(C)[N+](=O)[O-])c1cnccc1C(F)(F)F` (stereo not shown) [Example 124], the “root-systemic effect of the preparation” value in experiment [1] is given as “active”. Also, the “mortality of the preparation” value in experiment [2] is “active”.

In the case of `O=C(NSC1CCCCC1)c1cnccc1C(F)(F)F` [Example A, N-cyclohexylthio-(4-trifluoromethyl)nicotinamide], the “root-systemic effect of the preparation” value in experiment [1] was “active”. In addition, in experiment [2], the “mortality of the preparation” value is “active”.

Consider `CCC(C)SNC(=O)c1cnccc1C(F)(F)F` (stereo not shown) [Example B, N-(2-butylthio)-(4-trifluoromethyl)nicotinamide], for which the “root-systemic effect of the preparation” value in experiment [1] is “active”. In addition, the “mortality of the preparation” value in experiment [2] is reported as “active”.
